Where two headings read alike, the source gives them in different places. Numbered stars: 1 amine (or outer) side, 2 acyl side, 3 side chain; on linkers, the order of the positions; unused ones are H or OH. Square brackets hold non-standard residues; d marks the D form. Peptide text beside a SMILES is read from it. * marks the point of attachment. Pteroyl = Nc1nc2ncc(CNc3ccc(C(=O)*)cc3)nc2c(=O)[nH]1; Orn(N3) = [N-]=[N+]=NCCC[C@H](N)C(=O)O; γGlu = O=C(O)[C@H](CCC(=O)[*:2])N[*:1]
What was measured:
[1] = control compounds; cited from earlier work
[2] = test system: MCF-7 (DSMZ ACC 115) cells; assay: cells; format: cell-based
Protocol: (§1) 60 μL of serial dilutions of the test compound were given to 120 μL of suspended cells (50.000/mL) in wells of 96-well plates. After 5 days of incubation growth inhibition (IC50) was determined using an MTT assay.^[64]

[3] = test system: SKOV-3 (DSMZ ATCC HTB 77) cells; assay: cells; format: cell-based
Protocol: as §1

[4] = test system: A549 (DSMZ ACC 107) cells; assay: cells; format: cell-based
Protocol: as §1

[5] = test system: KB 3.1 (DSMZ ACC 158) cells
[6] = test system: KB 3.1 (DSMZ ACC 158) cells; assay: cells; details: Homo sapiens, KB 3-1, 120 h, read-out: IC50 [nM] KB-3.1, growth inhibition, 5 days of incubation, MTT assay
CRM1 = target: T1, CRM1 (Homo sapiens, UniProt O14980); assay: Monitoring export inhibitory activity (translocation biosensor, HeLaRevBio cells); format: cell-based
T1 construct: HeLa cells stably expressing a fluorescent translocation biosensor (HeLaRevBio); endogenous in cells; host or cells: HeLa (HeLaRevBio in A7; HeLa in A8)
Protocol: Export inhibitory ability of compounds was evaluated with the translocation biosensor system. This cellular assay depends on a recombinantly expressed fusion protein consisting of a nuclear localization signal (SV40-NLS), glutathione S-transferase (GST), green fluorescent protein (GFP) and a nuclear export signal (HIV1-RevNES). Due to the two transport signals (NLS/NES), the biosensor is permanently shuttling between nucleus and cytoplasm but resides prominently in the cytoplasm due to a comparatively stronger NES. Export inhibiting compound induce a nuclear accumulation of the GFP-signal^[65,66] Cell lines were maintained as recommended by the American Type Culture Collection in DMEM containing 5% glutamine (Thermo Fisher Scientific, Waltham, USA) supplemented with 10% FBS (Thermo Fisher Scientific, Waltham, USA). For quantifying the nuclear export inhibitory effect, HeLa cells stably expressing a fluorescent translocation biosensor (HeLaRevBio)^[67] were seeded into black 96 well μclear plates (Greiner, Germany). They next day compounds were added covering an appropriate concentration range. After 1h of incubation, cells were fixed in 4% PFA for 10 min and permeabilized with 0.1% Triton X 100 in PBS for 5 min. After washing with PBS nuclei were labeled with Hoechst H33342 (30 min 10 μg/ml). The intracellular distribution of the biosensor-dependent GFP signal was quantitatively evaluated with the high content imaging system ImageXpress MicroXLS (Molecular Devices, Sunnyvale, USA). By using the translocation enhanced application module (Molecular Devices, Sunnyvale, USA) the GFP-intensity was quantified in the cytoplasm and nuclear region. As final readout the difference of Mean Inner and Mean Outer Intensity was calculated. IC50s of nuclear export inhibition were calculated using Sigma Plot with four parameter logistics curve regression (Systat Software GmbH, Erkrath, Germany). […] The following day compounds were added at 125 nM final concentration.

[7] = growth inhibition, 5 days of incubation, MTT assay, read-out: IC50 [nM] MCF-7 (carrier molecules)
[8] = growth inhibition, 5 days of incubation, MTT assay, read-out: IC50 [nM] SK-OV-3 (carrier molecules)
[9] = growth inhibition, 5 days of incubation, MTT assay, read-out: IC50 [nM] A-549 (carrier molecules)
[10] = read-out: IC50 [nM] KB-3.1 (carrier molecules), growth inhibition, 5 days of incubation, MTT assay
[11] = Homo sapiens, MCF7, 120 h, read-out: IC50 [nM] MCF-7, growth inhibition, 5 days of incubation, MTT assay
[12] = Homo sapiens, SK-OV-3, 120 h, read-out: IC50 [nM] SK-OV-3, growth inhibition, 5 days of incubation, MTT assay
[13] = Homo sapiens, A549, 120 h, read-out: IC50 [nM] A-549, growth inhibition, 5 days of incubation, MTT assay

T1 sequence (O14980 whole entry): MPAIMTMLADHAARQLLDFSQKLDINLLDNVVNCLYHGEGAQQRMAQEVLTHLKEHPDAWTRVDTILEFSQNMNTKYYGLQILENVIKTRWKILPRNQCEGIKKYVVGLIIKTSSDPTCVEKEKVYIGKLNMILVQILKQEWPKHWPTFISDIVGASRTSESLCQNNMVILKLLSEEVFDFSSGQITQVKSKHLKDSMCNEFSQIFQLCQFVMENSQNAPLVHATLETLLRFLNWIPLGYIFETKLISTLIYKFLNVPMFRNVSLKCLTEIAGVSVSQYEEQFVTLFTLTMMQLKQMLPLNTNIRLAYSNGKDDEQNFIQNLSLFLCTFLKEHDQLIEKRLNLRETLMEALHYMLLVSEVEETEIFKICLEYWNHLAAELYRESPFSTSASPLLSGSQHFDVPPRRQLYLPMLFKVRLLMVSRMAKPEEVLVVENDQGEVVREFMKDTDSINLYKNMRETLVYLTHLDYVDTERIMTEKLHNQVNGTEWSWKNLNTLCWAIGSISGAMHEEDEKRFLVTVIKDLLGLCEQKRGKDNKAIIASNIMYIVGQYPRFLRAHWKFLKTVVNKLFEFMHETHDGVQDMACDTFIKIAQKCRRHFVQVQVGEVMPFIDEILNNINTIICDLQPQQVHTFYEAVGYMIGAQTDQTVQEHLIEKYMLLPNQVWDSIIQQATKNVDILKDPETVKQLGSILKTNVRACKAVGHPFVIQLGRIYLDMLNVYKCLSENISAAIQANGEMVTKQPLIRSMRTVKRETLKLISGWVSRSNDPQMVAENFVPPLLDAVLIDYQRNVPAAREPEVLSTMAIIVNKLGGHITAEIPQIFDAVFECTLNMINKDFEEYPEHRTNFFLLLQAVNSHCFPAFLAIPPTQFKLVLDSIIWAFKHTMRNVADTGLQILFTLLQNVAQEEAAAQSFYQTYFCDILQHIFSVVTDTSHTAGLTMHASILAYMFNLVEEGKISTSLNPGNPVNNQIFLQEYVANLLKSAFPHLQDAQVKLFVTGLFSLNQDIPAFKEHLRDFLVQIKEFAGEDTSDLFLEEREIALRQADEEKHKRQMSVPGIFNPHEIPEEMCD

For `CCCOc1cc(N)ccc1C(=O)OCCN(CC)CC` [propoxycaine], the “stability in mouse plasma” value [1] is given as “unstable”.
With `CC(C)C[C@H](NC(=O)CNC(=O)[C@H](Cc1ccc(O)cc1)NC(=O)[C@H](CO)NC(=O)[C@H](Cc1c[nH]c2ccccc12)NC(=O)[C@H](Cc1c[nH]cn1)NC(=O)[C@@H]1CCC(=O)N1)C(=O)N[C@@H](CCCNC(=N)N)C(=O)N1CCC[C@H]1C(=O)NCC(N)=O` [LHRH, (S)—N-(2-amino-2-oxoethyl)-1-(((S)-5-oxopyrrolidine-2-carbonyl)-L-histidyl-L-tryptophyl-L-seryl-L-tyrosylglycyl-L-leucyl-L-arginyl)pyrrolidine-2-carboxamide, reference compound] the IC50 [2, 7] was greater than 405000 nM, the IC50 [3, 8] was greater than 405000 nM and the IC50 [4, 9] was greater than 405000 nM. The IC50 [5, 10] was greater than 405000 nM.
Work on `[N-]=[N+]=NCCC[C@H](NC(=O)CC[C@H](NC(=O)c1ccc(NCc2cnc3nc(N)nc(O)c3n2)cc1)C(=O)O)C(=O)N[C@H](CCCCN)C(=O)O` [FA-N3-9, ((S)-2-((S)-4-(4-(((2-amino-4-hydroxypteridin-6-yl)methyl)amino)benzamido)-4-carboxybutanamido)-5-azidopentanoyl)-D-lysine] yielded an IC50 [4, 9] greater than 140000 nM and an IC50 [5, 10] greater than 140000 nM.
With `CC(C)C[C@H](NC(=O)[C@@H](CCCN=[N+]=[N-])NC(=O)[C@H](Cc1ccc(O)cc1)NC(=O)[C@H](CO)NC(=O)[C@H](Cc1c[nH]c2ccccc12)NC(=O)[C@H](Cc1c[nH]cn1)NC(=O)[C@@H]1CCC(=O)N1)C(=O)N[C@@H](CCCNC(=N)N)C(=O)N1CCC[C@H]1C(=O)NNC(N)=O` [D-N3-Orn-Goserellin, (S)—N-((6S,9S,12R,15S,18S,21S,24S)-21-((1H-indol-3-yl)methyl)-1-amino-12-(3-azidopropyl)-6-((S)-2-(2-carbamoylhydrazine-1-carbonyl)pyrrolidine-1-carbonyl)-15-(4-hydroxybenzyl)-18-(hydroxymethyl)-25-(1H-imidazol-4-yl)-1-imino-9-isobutyl-8,11,14,17,20,23-hexaoxo-2,7,10,13,16,19,22-heptaazapentacosan-24-yl)-5-oxopyrrolidine-2-carboxamide] the IC50 [2, 7] was greater than 663000 nM, the IC50 [3, 8] was greater than 663000 nM and the IC50 [4, 9] was greater than 663000 nM. For the same molecule, the IC50 [5, 10] was greater than 663000 nM.
Work on `[N-]=[N+]=Nc1ccc(C(=O)NCCCC[C@H](NC(=O)CC[C@H](NC(=O)CC[C@H](NC(=O)c2ccc(NCc3cnc4nc(N)nc(O)c4n3)cc2)C(=O)O)C(=O)O)C(=O)O)cc1` [FA-N3-6, (3S,8S,13S)-1-(4-(((2-amino-4-hydroxypteridin-6-yl)methyl)amino)phenyl)-19-(4-azidophenyl)-1,6,11,19-tetraoxo-2,7,12,18-tetraazanonadecane-3,8,13-tricarboxylic acid] yielded an IC50 [4, 9] greater than 118000 nM and an IC50 [5, 10] greater than 118000 nM.
Work on `CC(C)C[C@H](NC(=O)[C@H](CCCN=[N+]=[N-])NC(=O)[C@H](Cc1ccc(O)cc1)NC(=O)[C@H](CO)NC(=O)[C@H](Cc1c[nH]c2ccccc12)NC(=O)[C@H](Cc1c[nH]cn1)NC(=O)[C@@H]1CCC(=O)N1)C(=O)N[C@@H](CCCNC(=N)N)C(=O)N1CCC[C@H]1C(=O)NCC(N)=O` [L-N3-Orn-LHRH, (S)-1-(((S)-2-((S)-2-((S)-2-((S)-2-((S)-3-(1H-imidazol-4-yl)-2-((S)-5-oxopyrrolidine-2-carboxamido)propanamido)-3-(1H-indol-3-yl)propanamido)-3-hydroxypropanamido)-3-(4-hydroxyphenyl)propanamido)-5-azidopentanoyl)-L-leucyl-L-arginyl)-N-(2-amino-2-oxoethyl)pyro-lidine-2-carboxamide] yielded an IC50 [2, 7] greater than 727000 nM, an IC50 [3, 8] greater than 727000 nM and an IC50 [4, 9] greater than 727000 nM. It also gave an IC50 [5, 10] greater than 727000 nM.
Work on `C/C=C/[C@@H]1O[C@H]([C@@H](/C=C/C=C(\C)C[C@@H](C)/C=C(C)\C=C\[C@H]2CC=CC(=O)O2)NC(=O)OCc2ccc(NC(=O)[C@H](CCCNC(N)=O)NC(=O)[C@@H](NC(=O)OC[C@@H]3[C@@H]4CCC#CCC[C@@H]43)C(C)C)cc2)C[C@@H](O)[C@@H]1C` [BCN—O(CO)HN-Val-Cit-PABO(CO)NH-Ratja 31, ((1R,8S,9s)-bicyclo[6.1.0]non-4-yn-9-yl)methyl ((S)-1-(((S)-1-((4-(((((1R,2E,4E,7R,8Z,10E)-1-((2S,4R,5S,6S)-4-hydroxy-5-methyl-6-((E)-prop-1-en-1-yl)tetrahydro-2H-pyran-2-yl)-5,7,9-trimethyl-11-((R)-6-oxo-3,6-dihydro-2H-pyran-2-yl)undeca-2,4,8,10-tetraen-1-yl)carbamoyl)oxy)methyl)phenyl)amino)-1-oxo-5-ureidopentan-2-yl)amino)-3-methyl-1-oxobutan-2-yl)carbamate] yielded an IC50 [6] of 25.1 nM, an IC50 [2, 11] of 20.2 nM and an IC50 [3, 12] of 34.7 nM. It also gave an IC50 [4, 13] of 39.5 nM and an IC50 (CRM1) of 346 nM.
In the case of `CC(C)C[C@H](NC(=O)C(CCCN=[N+]=[N-])NC(=O)[C@H](Cc1ccc(O)cc1)NC(=O)[C@H](CO)NC(=O)[C@H](Cc1c[nH]c2ccccc12)NC(=O)[C@H](Cc1c[nH]cn1)NC(=O)[C@@H]1CCC(=O)N1)C(=O)N[C@@H](CCCNC(=N)N)C(=O)N1CCC[C@H]1C(=O)NCC(N)=O` (stereo in doubt) [D-N3-Orn-LHRH, (S)-1-(((R)-2-((S)-2-((S)-2-((S)-2-((S)-3-(1H-imidazol-4-yl)-2-((S)-5-oxopyrrolidine-2-carboxamido)propanamido)-3-(1H-indol-3-yl)propanamido)-3-hydroxypropanamido)-3-(4-hydroxyphenyl)propanamido)-5-azidopentanoyl)-L-leucyl-L-arginyl)-N-(2-amino-2-oxoethyl)pyrrolidine-2-carboxamide], the IC50 [2] is reported as 47.4 nM, the IC50 [3] is reported as 190 nM and the IC50 [4] is reported as 318 nM. The IC50 [5] was 1110 nM.
In the case of `CCN(CC)CCOC(=O)c1ccc(N)cc1` [Procaine, procaine], the “stability in mouse plasma” value [1] is listed as “unstable”.
Work on `C#CCCOC(=O)N[C@H](/C=C/C=C(\C)C[C@@H](C)/C=C(C)\C=C\[C@H]1CC=CC(=O)O1)[C@@H]1C[C@@H](O)[C@H](C)[C@H](/C=C/C)O1` [Compound 24, But-3-yn-1-yl ((1R,2E,4E,7R,8Z,10E)-1-((2S,4R,5S,6S)-4-hydroxy-5-methyl-6-((E)-prop-1-en-1-yl)tetrahydro-2H-pyran-2-yl)-5,7,9-trimethyl-11-((R)-6-oxo-3,6-dihydro-2H-pyran-2-yl)undeca-2,4,8,10-tetraen-1-yl)carbamate] yielded an IC50 [6] of 0.47 nM, an IC50 [2, 11] of 0.27 nM and an IC50 [3, 12] of 0.45 nM. The IC50 [4, 13] was 1.25 nM and the IC50 (CRM1; HeLa cells stably expressing translocation biosensor, 1h of incubation, read-out: IC50 [nM] CRM1 (nuclear export inhibition)) was 46.1 nM.
With `[N-]=[N+]=NCCC[C@H](NC(=O)[C@@H](CC(=O)O)NC(=O)[C@@H](CC(=O)O)NC(=O)[C@@H](CC(=O)O)NC(=O)[C@@H](CC(=O)O)NC(=O)[C@@H](CC(=O)O)NC(=O)CC[C@H](NC(=O)c1ccc(NCc2cnc3nc(N)nc(O)c3n2)cc1)C(=O)O)C(=O)O` [FA-N3-5, N^2-(4-(((2-amino-4-hydroxypteridin-6-yl)methyl)amino)benzoyl)-N5-((R)-1-(((R)-1-(((R)-1-(((R)-1-(((R)-1-(((S)-4-azido-1-carboxybutyl)amino)-3-carboxy-1-oxopropan-2-yl)amino)-3-carboxy-1-oxopropan-2-yl)amino)-3-carboxy-1-oxopropan-2-yl)amino)-3-carboxy-1-oxopropan-2-yl)amino)-3-carboxy-1-oxopropan-2-yl)-L-glutamine] ({Pteroyl-γGlu}-[dD][dD][dD][dD][dD][Orn(N3)]-OH) the IC50 [4, 9] was greater than 86400 nM and the IC50 [5, 10] was greater than 86400 nM.

From US11236059B2, “Targeted cytotoxic ratjadone derivatives and conjugates thereof” (HELMHOLTZ-ZENTRUM FUER INFEKTIONSFORSCHUNG GMBH, priority 2017, dated 2022)
